The text below walks through data of ChEMBL document CHEMBL1201862, “PubChem BioAssay data set” (2004).

Experiment [1] addresses Lysine-specific demethylase 4C (Homo sapiens, UniProt Q9H3R0). Briefly: GASC-1 (JMJD2C) histone demethylase inhibitors, dose response, biochemical, DELFIA europium, cherry-picked samples (AID 488835). It is filed as functional.
In experiment [2] the target is T1, Kappa-type opioid receptor (Homo sapiens, UniProt P41145). Briefly: SAR analysis of small molecule agonists of the kappa opioid receptor via a luminescent beta-arrestin assay. [Related pubchem assays (depositor defined):AID1777, AID1786, AID1966, AID2133, AID2136, AID2348, AID2352, AID2357, AID2359, AID2370, AID2420, AID2478, AID2491, AID2492, AID2493, AID2497, AID2498, AID2500, AID449737, AID488822, AID488842]. The class given is functional.

Experiment [3] concerns the target T2, Mu-type opioid receptor (Homo sapiens, UniProt P35372). Briefly: MOR agonists by imaging, SAR follow-up, image-based (AID 2352). The class given is functional.
Experiment [4] deals with T3, Delta-type opioid receptor (Homo sapiens, UniProt P41143). Briefly: DOR agonists, SAR follow-up, image-based (AID 2370). The class given is functional.
Experiment [5] addresses T1, Kappa-type opioid receptor. Briefly: KOR antagonists by imaging, SAR follow-up, image-based (AID 2348). It is filed as functional.
The target in experiment [6] is T2, Mu-type opioid receptor. Briefly: MOR antagonists, SAR follow-up, image-based (AID 2420).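 Further: compounds added before stimulation of receptor with agonist DAMGO.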 The class given is functional.
The target of experiment [7] is T1, Kappa-type opioid receptor. Briefly: KOR agonist analogs, imaging readout, SAR follow-up, image-based (AID 2359). The class given is functional.
Experiment [8] deals with T3, Delta-type opioid receptor. Briefly: DOR antagonists, SAR follow-up, image-based (AID 2357). The class given is functional.
Experiment [9] has as its system Streptococcus sp. 'group A'. Briefly: growth inhibition of control SK(-) GAS strain, dose response, counter-screen for streptokinase expression inhibitor project, luminescence, kanamycin, BacTiterGlo, confirmation (AID 1900). The class given is functional, organism-based. A general note: Counterscreens check selectivity or assay interference.
For another experiment, the target named is T4, Streptokinase A (Streptococcus pyogenes serotype M1, UniProt P10520).
T4 sequence (P10520 whole entry): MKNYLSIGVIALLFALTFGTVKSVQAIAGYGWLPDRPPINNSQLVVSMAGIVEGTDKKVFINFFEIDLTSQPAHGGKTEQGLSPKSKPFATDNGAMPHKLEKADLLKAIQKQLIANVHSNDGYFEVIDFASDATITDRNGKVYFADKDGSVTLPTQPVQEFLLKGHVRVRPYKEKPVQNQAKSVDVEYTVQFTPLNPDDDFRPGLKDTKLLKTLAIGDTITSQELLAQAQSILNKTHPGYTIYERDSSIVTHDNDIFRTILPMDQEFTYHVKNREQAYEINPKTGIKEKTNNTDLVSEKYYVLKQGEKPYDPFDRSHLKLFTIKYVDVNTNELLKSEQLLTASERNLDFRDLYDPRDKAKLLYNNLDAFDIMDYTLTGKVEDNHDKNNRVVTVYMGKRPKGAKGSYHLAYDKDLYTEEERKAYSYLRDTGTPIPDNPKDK
Briefly: S. pyogenes streptokinase expression inhibitors, potency, dose response, plasminogen activation absorbance, OD405 (AID 1914).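 Further: secreted streptokinase activity via plasminogen activation per viability signal from cell pellet.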 The class given is functional, Streptococcus pyogenes M1 GAS.

A further experiment deals with Streptococcus. Briefly: Group A Streptococcus viability loss, dose response, counter-screen for streptokinase expression inhibitor project, luminescence, BacTiterGlo (AID 1915).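 Further: potency for reduction of bacterial viability or growth.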 It is filed as functional, organism-based.
Experiment [10] can be described thus: THP-1 cell cytotoxicity, dose response, cytotoxicity control for non-replicating M. tuberculosis project (AID 489025). It is filed as functional.
Experiment [11] in a line: HepG2 cell cytotoxicity, dose response, cytotoxicity control for non-replicating M. tuberculosis project (AID 489018). The class given is functional. As to conditions: Mycobacterium tuberculosis.
A short description of experiment [12]: Vero E6 cell cytotoxicity, dose response, cytotoxicity control for non-replicating M. tuberculosis project, secondary assay (AID 492998). As to conditions: Vero C1008. It is filed as functional, VeroE6.
The target of experiment [13] is T5, Short transient receptor potential channel 4 (Mus musculus, UniProt Q9QUQ5).
T5 sequence (Q9QUQ5 whole entry): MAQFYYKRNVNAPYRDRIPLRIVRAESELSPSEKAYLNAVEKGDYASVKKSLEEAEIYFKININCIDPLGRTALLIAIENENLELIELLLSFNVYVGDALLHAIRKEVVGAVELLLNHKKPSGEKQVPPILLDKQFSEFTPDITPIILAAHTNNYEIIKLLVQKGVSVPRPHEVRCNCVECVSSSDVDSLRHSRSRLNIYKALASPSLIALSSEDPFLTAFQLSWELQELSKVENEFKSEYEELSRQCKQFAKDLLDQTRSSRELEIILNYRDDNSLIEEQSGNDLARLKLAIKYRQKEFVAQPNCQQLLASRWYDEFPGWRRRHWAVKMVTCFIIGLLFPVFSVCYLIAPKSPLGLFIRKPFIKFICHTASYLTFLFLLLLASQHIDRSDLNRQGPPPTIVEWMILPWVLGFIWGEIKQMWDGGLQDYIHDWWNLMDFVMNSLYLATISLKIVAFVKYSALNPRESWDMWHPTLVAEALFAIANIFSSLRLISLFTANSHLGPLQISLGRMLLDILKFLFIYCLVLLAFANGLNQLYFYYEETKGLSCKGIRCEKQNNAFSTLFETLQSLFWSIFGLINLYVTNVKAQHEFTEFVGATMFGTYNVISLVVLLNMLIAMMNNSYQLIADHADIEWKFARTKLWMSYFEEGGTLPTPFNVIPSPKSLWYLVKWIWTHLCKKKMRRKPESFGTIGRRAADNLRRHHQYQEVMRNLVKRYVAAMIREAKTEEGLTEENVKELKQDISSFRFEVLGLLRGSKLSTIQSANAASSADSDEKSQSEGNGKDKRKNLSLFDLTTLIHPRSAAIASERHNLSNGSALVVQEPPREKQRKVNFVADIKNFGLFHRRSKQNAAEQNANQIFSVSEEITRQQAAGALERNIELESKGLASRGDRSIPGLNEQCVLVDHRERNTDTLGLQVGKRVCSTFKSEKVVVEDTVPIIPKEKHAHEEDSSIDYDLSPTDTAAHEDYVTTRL
Briefly: mouse TRPC4 channel activators, dose response, cell-based, HEK293 TRPC4/mu-opioid, Fluo-4 calcium (AID 434937). It is filed as functional.

A further experiment can be described thus: cells. It is filed as functional.
For another experiment, the system named is Vero. Briefly: cells. The class given is functional. As to conditions: Chlorocebus sabaeus.
In experiment [14] the target is T6, Corticotropin-releasing factor receptor 2/Corticotropin-releasing factor-binding protein (Homo sapiens, UniProt P24387+Q13324).
T6 sequence (Q13324 whole entry): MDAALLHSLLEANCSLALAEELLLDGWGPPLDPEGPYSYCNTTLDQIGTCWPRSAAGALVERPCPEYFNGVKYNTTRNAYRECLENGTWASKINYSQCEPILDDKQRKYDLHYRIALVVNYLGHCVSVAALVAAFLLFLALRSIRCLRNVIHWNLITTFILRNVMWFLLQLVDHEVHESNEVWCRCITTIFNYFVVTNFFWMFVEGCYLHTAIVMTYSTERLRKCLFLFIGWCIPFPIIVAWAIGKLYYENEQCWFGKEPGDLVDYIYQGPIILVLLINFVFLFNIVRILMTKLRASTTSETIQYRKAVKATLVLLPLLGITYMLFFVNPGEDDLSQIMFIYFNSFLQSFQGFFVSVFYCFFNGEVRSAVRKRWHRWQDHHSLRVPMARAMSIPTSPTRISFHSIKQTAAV
T6 sequence (P24387 whole entry): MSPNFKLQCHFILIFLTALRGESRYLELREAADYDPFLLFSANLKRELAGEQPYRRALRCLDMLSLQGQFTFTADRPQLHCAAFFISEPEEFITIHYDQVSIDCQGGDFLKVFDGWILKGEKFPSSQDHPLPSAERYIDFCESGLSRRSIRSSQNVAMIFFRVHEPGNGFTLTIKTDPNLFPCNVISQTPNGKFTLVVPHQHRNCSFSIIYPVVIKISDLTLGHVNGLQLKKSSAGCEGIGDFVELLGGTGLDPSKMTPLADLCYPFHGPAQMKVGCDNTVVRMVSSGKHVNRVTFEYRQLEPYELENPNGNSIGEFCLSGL
Briefly: activators of CRF receptor 2 with binding protein – uHTS hits, confirmation (AID 602473). The class given is functional. As to conditions: read-out: EC50_Mean.

Another experiment deals with Troponin, cardiac muscle (Homo sapiens, UniProt P19429+P45379+P63316). Briefly: Fluorescence-based biochemical high throughput dose response assay for activators of the calcium sensitivity of cardiac Regulated Thin Filaments (RTF). [Related pubchem assays (depositor defined):AID493008, AID493018, AID504382, AID504383]. It is filed as protein-complex assay.
Experiment [15] concerns the target Peroxisome proliferator-activated receptor gamma/Nuclear receptor coactivator 1 (Homo sapiens, UniProt P37231). Briefly: TR-FRET dose response biochemical High Throughput Screening assay for agonists of the steroid receptor coactivator 1 (SRC-1) recruitment by the peroxisome proliferator-activated receptor gamma (PPAR gamma): non-selective agonists. [Related pubchem assays (depositor defined):AID1300, AID1808, AID504735, AID631]. The class given is protein assay. (In general: TR-FRET usually uses a lanthanide donor and a delayed reading to cut background.)

In experiment [16] the target is Peroxisome proliferator-activated receptor gamma/Nuclear receptor coactivator 3 (Homo sapiens, UniProt P37231). Briefly: TR-FRET dose response biochemical High Throughput Screening assay for agonists of the steroid receptor coactivator 3 (SRC-3) recruitment by the peroxisome proliferator-activated receptor gamma (PPAR gamma): non-selective agonists. [Related pubchem assays: 1301 (Confirmation screen.), 1048 (Primary screen.)]. It is filed as functional.

The target of experiment [17] is Peroxisome proliferator-activated receptor gamma/Nuclear receptor coactivator 2 (Homo sapiens, UniProt P37231). Briefly: TR-FRET dose response biochemical High Throughput Screening assay for agonists of the steroid receptor coactivator 2 (SRC-2) recruitment by the peroxisome proliferator-activated receptor gamma (PPAR gamma): non-selective agonists. [Related pubchem assays: 1297, 1032 ]. The class given is functional.

For experiment [18], the target named is T2, Mu-type opioid receptor. Briefly: SAR Analysis of Antagonists of the MOR Receptor using an Image-Based Assay - Set 3. [Related pubchem assays (depositor defined):AID1777, AID1785, AID1786, AID1966, AID2133, AID2136, AID2284, AID2285, AID2420]. It is filed as functional.
Experiment [19] concerns the target T3, Delta-type opioid receptor. Briefly: SAR Analysis of Antagonists of the DOR Receptor using an Image-Based Assay - Set 3. [Related pubchem assays (depositor defined):AID1777, AID1785]. The class given is functional.
Experiment [20] has as its target T1, Kappa-type opioid receptor. Briefly: SAR analysis of small molecule antagonists of the kappa opioid receptor via a luminescent beta-arrestin assay - Set 3. [Related pubchem assays (depositor defined):AID1777, AID1778, AID1785, AID1786, AID1966, AID2133, AID2136, AID2285, AID2495]. The class given is functional.
Experiment [21] has as its target T1, Kappa-type opioid receptor. Briefly: SAR analysis of Antagonists of the Kappa Opioid Receptor (KOR) using an Image-Based Assay - Set 3. [Related pubchem assays (depositor defined):AID1777, AID1785]. The class given is functional.

Active and inactive are the calls of the source.

T1 sequence (P41145 whole entry): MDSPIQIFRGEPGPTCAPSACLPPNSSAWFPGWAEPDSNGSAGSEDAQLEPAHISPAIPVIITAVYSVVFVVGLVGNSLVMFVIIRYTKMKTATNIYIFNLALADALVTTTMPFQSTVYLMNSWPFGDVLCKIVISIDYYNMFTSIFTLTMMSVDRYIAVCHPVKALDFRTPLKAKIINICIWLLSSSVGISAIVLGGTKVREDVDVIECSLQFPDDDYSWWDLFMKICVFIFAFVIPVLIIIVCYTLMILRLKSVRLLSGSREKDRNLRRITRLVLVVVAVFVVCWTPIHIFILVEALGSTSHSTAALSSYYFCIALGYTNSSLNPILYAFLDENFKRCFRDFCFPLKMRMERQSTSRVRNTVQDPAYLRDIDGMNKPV
T2 sequence (P35372 whole entry): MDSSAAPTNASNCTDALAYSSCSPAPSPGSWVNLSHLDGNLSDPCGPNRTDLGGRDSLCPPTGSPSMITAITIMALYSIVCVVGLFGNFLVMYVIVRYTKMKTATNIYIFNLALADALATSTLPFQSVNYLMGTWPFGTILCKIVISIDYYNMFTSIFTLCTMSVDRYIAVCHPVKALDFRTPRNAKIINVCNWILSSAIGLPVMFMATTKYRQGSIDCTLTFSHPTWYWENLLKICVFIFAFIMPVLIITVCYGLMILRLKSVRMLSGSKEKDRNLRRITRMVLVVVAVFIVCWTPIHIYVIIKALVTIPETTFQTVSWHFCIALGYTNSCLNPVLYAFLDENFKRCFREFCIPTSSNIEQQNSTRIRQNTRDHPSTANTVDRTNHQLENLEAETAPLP
T3 sequence (P41143 whole entry): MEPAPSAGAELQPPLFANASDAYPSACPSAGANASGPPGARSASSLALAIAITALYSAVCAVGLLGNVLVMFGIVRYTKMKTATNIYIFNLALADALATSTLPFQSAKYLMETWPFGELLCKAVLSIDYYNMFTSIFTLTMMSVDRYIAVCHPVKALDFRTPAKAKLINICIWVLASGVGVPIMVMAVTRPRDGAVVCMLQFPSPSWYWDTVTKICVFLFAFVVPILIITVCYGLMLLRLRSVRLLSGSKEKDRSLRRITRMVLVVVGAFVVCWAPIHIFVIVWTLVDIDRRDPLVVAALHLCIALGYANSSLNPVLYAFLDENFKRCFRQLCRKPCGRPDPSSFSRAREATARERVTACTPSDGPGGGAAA
Peroxisome proliferator-activated receptor gamma/Nuclear receptor coactivator 2, sequence (P37231 whole entry): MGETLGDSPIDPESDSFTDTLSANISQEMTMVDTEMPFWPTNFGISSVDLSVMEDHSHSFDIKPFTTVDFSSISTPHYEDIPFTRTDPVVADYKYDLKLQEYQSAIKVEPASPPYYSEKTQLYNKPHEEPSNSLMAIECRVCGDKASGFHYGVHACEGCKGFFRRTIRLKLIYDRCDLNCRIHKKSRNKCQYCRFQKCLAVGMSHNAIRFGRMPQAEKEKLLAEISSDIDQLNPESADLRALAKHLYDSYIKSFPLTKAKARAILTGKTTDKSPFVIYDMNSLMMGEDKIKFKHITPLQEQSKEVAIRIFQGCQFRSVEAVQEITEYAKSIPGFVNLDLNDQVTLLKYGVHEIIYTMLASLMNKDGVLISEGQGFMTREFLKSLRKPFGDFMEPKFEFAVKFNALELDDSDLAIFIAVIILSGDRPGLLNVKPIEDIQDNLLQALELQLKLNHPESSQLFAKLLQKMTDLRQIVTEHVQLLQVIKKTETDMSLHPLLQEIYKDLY
Peroxisome proliferator-activated receptor gamma/Nuclear receptor coactivator 2, sequence (Q15596 whole entry, further chain): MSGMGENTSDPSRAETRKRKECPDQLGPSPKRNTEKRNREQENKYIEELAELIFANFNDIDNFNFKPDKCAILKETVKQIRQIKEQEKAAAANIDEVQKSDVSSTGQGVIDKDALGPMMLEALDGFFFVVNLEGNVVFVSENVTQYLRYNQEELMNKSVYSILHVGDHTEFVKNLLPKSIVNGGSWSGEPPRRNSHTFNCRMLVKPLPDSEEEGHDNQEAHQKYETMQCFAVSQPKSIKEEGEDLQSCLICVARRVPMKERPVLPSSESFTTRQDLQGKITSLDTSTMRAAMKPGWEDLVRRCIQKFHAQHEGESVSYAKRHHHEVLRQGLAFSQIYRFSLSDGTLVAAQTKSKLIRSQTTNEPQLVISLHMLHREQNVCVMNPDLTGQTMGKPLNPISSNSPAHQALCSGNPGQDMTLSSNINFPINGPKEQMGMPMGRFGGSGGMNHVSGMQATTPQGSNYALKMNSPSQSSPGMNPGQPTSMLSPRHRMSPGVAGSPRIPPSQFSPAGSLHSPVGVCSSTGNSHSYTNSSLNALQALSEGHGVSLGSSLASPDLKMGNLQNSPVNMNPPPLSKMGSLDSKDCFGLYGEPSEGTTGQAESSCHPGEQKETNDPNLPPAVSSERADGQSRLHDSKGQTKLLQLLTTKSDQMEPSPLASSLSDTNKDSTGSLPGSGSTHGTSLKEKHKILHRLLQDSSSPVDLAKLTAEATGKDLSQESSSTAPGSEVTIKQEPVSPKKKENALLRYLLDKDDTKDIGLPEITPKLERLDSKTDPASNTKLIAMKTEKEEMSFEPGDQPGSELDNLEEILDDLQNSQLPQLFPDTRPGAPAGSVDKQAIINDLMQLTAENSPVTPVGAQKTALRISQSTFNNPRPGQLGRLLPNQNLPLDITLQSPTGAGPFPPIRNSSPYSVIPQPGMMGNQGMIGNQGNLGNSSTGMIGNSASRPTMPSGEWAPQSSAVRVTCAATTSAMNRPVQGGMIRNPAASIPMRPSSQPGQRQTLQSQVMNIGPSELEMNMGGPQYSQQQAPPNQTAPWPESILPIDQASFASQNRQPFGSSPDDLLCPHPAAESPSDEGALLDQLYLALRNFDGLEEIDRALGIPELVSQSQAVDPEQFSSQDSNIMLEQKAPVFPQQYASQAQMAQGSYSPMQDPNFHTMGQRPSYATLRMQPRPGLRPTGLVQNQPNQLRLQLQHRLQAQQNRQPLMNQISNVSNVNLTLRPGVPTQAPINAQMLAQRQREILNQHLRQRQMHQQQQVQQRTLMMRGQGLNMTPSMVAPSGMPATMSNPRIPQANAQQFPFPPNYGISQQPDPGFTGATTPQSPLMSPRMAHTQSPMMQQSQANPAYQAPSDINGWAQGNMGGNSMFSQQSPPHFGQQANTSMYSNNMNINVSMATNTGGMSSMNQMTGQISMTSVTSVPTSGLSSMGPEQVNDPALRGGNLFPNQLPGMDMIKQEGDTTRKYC
Peroxisome proliferator-activated receptor gamma/Nuclear receptor coactivator 1, sequence (P37231 whole entry): as the sequence (P37231 whole entry) above
Peroxisome proliferator-activated receptor gamma/Nuclear receptor coactivator 1, sequence (Q15788 whole entry, further chain): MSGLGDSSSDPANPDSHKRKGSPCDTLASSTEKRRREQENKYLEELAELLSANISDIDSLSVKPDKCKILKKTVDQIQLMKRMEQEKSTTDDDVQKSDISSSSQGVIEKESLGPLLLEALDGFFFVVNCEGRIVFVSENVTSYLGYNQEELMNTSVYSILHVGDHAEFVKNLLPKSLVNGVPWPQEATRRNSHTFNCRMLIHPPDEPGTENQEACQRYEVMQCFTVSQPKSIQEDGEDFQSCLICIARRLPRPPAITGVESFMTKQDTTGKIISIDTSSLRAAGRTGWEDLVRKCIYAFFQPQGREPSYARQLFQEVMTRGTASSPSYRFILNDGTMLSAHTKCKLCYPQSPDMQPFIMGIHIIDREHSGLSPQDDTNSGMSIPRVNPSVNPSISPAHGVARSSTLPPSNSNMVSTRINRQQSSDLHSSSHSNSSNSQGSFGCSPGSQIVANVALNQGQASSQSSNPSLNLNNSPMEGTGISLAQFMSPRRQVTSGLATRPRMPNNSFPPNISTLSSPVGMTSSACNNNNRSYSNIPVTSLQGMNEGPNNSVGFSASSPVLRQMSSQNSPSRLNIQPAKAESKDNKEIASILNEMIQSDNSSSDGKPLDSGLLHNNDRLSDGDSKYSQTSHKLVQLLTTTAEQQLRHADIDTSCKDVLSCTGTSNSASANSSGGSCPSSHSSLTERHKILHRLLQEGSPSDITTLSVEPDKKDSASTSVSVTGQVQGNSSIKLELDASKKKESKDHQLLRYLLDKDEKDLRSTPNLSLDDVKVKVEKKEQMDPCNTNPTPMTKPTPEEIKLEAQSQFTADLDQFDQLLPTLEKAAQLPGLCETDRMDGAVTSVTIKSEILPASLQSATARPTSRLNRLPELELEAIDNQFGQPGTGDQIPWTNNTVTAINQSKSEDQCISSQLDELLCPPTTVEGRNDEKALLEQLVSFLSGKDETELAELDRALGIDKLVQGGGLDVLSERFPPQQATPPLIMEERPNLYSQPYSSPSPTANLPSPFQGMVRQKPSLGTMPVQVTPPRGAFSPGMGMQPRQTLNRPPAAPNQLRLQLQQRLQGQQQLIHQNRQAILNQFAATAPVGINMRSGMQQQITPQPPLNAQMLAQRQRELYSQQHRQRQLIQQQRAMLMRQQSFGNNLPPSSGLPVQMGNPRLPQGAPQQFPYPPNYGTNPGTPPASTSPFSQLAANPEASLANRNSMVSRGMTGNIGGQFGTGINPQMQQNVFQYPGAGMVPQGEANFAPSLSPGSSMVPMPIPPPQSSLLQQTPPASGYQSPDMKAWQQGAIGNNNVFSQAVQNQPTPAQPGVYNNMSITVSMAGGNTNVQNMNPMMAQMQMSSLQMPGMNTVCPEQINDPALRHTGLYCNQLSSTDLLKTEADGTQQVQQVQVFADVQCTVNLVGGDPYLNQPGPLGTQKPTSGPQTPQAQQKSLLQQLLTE

As to `CC(Sc1nc2c(cc1C#N)CCCCC2)C(=O)O` (stereo unspecified), the AC50 in [1] is > 60 µM (inactive).
In the case of `CCCN(Cc1cc2cc(C)ccc2[nH]c1=O)C(=O)c1ccccn1`, the EC50 in [2] is > 10 µM (inactive); at Mu-type opioid receptor [3], > 32 µM (inactive); in experiment [4] it was > 32 µM (inactive); in [7] it was > 32 µM (inactive). Moreover, the IC50 (in experiment [5]; at Mu-type opioid receptor [6]; in [8]) was > 32 µM (inactive) each time.
Take `CC1(C(=O)NC(=S)NNC(=O)c2ccncc2)CCCCC1`: the EC50 in experiment [9] is 1.59 µM (active); on Streptokinase A, > 150 µM (not active); in the experiment with Streptococcus, 21.1 µM (active); in [13] it was 11.9 µM (active); in experiment [14], 4.91 µM (active). The CC50 is 9 µM (active) in experiment [10], > 20 µM (active) in experiment [11], 13.4 µM (active) in [12] and > 25 µM (active) with Vero. The IC50 in the experiment “cells” was 1.06 µM (active).
Turning to `N=C1c2ccccc2CN1c1ccc(S(=O)(=O)N2CCCCC2)cc1`, the EC50 on Troponin, cardiac muscle was > 71.5 µM (inactive).
As to `Cc1nc(-c2ccccc2)sc1-c1nc(-c2ccccc2)ncc1S(=O)(=O)c1ccccc1`, the EC50 was > 26.5 µM (inactive) in experiment [15], 61.8 µM (not active) in experiment [16] and 38.2 µM (not active) in experiment [17].
In the case of `COc1ccc(S(=O)(=O)NCc2ccc(C(=O)NCCN(Cc3ccc(Br)cc3)C(C)C)cc2)cc1`, the IC50 on Mu-type opioid receptor [18] was > 32 µM (inactive); in experiment [19] it was > 32 µM (inactive); in experiment [20], 13.5 µM (inactive); in experiment [21], 1.38 µM (active).

As a reminder, the AC50 is the concentration giving half of the maximal activity seen. A word on the IC50: it is the concentration at which inhibition is half-maximal. One may read the CC50 as the concentration giving 50% cytotoxicity.
